{
  "source": "patent US9492471B2",
  "about": "“Methods of treating a disease or disorder associated with Bruton'S Tyrosine Kinase” (Celgene Avilomics Research, Inc., priority 2013, dated 2016)",
  "experiment_in_all_cases": "HotSpot kinase profiling",
  "type_in_all_cases": "biochemical",
  "key": {"[1]": {"target": "T1, Aurora B (Homo sapiens, UniProt Q96GD4)", "T1 construct": "purchased Reaction Biology Corp", "T1 sequence (Q96GD4 whole entry)": "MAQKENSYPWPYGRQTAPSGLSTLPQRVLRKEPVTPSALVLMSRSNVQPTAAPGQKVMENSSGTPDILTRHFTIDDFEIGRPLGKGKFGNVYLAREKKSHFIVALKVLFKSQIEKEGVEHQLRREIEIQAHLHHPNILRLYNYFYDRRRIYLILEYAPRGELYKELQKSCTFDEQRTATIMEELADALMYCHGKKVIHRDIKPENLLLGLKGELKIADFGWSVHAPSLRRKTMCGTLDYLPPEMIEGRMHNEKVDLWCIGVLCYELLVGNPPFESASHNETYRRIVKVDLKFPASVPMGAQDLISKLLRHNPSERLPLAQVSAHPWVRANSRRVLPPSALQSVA", "outline": "(§1)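 Radiometric kinase assay with P81 filter capture; each kinase was added to fresh substrate plus cofactors in reaction buffer and incubated 2 h at room temperature. Unreacted phosphate was washed off with 0.1% phosphoric acid before detection; percent inhibition is relative to DMSO control, averaged over replicates.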"}, "[2]": {"target": "T2, CAMK2a (Homo sapiens, UniProt Q9UQM7)", "T2 construct": "purchased Reaction Biology Corp", "T2 sequence (Q9UQM7 whole entry)": "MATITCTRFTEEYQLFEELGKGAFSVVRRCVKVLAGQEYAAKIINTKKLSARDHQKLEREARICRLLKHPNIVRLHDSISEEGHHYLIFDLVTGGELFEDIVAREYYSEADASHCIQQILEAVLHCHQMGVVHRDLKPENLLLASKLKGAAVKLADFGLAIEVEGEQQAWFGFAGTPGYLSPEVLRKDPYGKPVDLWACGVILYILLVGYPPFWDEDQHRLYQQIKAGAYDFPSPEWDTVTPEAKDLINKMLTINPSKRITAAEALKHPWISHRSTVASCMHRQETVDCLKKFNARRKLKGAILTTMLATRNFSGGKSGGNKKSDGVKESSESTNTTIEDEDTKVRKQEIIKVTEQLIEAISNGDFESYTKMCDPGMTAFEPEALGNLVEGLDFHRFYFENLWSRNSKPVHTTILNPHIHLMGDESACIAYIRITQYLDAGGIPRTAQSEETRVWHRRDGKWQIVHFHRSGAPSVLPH", "outline": "as §1"}, "[3]": {"target": "T3, CDK2/cyclin A (Homo sapiens, UniProt P24941)", "T3 construct": "purchased Reaction Biology Corp", "outline": "as §1"}, "[4]": {"target": "T4, EPHA2 (Homo sapiens, UniProt P29317)", "T4 construct": "purchased Reaction Biology Corp", "T4 sequence (P29317 24-976)": "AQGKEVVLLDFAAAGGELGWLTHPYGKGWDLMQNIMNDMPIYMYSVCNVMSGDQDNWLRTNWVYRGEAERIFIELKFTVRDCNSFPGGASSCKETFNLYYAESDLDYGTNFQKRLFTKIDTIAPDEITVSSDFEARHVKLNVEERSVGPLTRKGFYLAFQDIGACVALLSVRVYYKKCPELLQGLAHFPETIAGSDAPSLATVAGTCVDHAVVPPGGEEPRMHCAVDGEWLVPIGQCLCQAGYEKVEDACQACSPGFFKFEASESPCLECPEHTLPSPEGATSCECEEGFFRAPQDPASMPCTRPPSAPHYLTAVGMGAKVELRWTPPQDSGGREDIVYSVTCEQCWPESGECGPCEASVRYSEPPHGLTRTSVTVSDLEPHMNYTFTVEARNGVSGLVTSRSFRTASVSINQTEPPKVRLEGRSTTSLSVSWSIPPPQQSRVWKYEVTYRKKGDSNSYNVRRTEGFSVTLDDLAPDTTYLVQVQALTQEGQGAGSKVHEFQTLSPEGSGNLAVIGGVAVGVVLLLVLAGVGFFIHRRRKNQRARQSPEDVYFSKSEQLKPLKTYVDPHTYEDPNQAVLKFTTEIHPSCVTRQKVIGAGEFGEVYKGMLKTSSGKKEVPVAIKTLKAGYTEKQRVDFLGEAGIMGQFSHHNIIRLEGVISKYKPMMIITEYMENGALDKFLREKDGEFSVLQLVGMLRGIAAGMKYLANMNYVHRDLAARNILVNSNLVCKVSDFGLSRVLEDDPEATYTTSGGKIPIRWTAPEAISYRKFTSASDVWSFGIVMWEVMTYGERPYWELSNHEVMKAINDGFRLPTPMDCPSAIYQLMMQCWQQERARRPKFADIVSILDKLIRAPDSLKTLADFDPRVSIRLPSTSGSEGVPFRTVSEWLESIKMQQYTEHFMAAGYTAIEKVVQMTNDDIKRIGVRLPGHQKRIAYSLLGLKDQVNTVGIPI", "outline": "as §1"}, "[5]": {"target": "T5, FYN (Homo sapiens, UniProt P06241)", "T5 construct": "purchased Reaction Biology Corp", "T5 sequence (P06241 whole entry)": "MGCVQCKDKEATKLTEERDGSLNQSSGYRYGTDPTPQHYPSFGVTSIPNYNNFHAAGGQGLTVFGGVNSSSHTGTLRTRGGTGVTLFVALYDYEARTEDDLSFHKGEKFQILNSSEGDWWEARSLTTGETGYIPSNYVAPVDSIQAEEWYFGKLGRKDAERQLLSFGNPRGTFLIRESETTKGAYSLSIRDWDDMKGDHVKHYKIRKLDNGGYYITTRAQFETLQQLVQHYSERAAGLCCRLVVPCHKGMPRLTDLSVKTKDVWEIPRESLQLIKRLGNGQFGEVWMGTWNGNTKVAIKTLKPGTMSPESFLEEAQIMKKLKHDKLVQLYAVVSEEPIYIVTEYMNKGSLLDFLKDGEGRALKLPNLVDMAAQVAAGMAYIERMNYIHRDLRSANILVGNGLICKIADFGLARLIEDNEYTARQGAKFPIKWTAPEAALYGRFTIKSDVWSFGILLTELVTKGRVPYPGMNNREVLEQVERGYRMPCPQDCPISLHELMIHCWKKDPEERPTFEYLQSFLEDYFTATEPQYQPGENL", "outline": "as §1"}, "[6]": {"target": "T6, MAPKAPK5/PRAK (Homo sapiens, UniProt Q8IW41)", "T6 construct": "purchased Reaction Biology Corp", "T6 sequence (Q8IW41 1-473)": "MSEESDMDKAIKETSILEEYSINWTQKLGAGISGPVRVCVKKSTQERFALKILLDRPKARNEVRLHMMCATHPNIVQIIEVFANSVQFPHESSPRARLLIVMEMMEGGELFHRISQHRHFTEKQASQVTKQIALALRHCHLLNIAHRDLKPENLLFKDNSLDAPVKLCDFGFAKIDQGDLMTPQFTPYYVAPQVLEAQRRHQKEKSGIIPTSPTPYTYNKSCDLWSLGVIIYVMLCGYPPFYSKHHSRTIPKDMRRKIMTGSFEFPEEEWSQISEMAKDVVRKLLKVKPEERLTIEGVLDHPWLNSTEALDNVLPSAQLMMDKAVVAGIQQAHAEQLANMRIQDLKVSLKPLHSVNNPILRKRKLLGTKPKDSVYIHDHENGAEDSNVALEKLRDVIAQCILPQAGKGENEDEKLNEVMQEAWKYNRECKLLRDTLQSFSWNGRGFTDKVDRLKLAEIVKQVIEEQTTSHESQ", "outline": "as §1"}, "[7]": {"target": "T7, MELK (Homo sapiens, UniProt Q14680)", "T7 construct": "purchased Reaction Biology Corp", "T7 sequence (Q14680 whole entry)": "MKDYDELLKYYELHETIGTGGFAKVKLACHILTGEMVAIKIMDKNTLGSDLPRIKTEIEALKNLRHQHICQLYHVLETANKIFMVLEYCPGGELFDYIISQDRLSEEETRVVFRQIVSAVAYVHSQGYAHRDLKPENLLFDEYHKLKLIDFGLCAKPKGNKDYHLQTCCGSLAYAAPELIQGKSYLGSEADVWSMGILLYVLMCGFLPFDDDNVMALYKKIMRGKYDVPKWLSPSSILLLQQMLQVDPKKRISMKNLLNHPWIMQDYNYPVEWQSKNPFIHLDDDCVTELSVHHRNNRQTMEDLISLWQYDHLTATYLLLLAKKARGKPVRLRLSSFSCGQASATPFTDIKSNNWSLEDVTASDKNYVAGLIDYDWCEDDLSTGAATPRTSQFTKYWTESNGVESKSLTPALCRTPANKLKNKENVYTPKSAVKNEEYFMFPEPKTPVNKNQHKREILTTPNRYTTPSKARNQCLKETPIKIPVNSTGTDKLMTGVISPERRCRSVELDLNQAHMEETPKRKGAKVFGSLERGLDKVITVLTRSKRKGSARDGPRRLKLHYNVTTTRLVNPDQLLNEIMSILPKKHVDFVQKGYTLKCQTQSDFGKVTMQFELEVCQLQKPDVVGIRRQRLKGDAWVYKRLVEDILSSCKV", "outline": "as §1"}, "[8]": {"target": "T8, NEK1 (Homo sapiens, UniProt Q96PY6)", "T8 construct": "purchased Reaction Biology Corp", "T8 sequence (Q96PY6 1-1258)": "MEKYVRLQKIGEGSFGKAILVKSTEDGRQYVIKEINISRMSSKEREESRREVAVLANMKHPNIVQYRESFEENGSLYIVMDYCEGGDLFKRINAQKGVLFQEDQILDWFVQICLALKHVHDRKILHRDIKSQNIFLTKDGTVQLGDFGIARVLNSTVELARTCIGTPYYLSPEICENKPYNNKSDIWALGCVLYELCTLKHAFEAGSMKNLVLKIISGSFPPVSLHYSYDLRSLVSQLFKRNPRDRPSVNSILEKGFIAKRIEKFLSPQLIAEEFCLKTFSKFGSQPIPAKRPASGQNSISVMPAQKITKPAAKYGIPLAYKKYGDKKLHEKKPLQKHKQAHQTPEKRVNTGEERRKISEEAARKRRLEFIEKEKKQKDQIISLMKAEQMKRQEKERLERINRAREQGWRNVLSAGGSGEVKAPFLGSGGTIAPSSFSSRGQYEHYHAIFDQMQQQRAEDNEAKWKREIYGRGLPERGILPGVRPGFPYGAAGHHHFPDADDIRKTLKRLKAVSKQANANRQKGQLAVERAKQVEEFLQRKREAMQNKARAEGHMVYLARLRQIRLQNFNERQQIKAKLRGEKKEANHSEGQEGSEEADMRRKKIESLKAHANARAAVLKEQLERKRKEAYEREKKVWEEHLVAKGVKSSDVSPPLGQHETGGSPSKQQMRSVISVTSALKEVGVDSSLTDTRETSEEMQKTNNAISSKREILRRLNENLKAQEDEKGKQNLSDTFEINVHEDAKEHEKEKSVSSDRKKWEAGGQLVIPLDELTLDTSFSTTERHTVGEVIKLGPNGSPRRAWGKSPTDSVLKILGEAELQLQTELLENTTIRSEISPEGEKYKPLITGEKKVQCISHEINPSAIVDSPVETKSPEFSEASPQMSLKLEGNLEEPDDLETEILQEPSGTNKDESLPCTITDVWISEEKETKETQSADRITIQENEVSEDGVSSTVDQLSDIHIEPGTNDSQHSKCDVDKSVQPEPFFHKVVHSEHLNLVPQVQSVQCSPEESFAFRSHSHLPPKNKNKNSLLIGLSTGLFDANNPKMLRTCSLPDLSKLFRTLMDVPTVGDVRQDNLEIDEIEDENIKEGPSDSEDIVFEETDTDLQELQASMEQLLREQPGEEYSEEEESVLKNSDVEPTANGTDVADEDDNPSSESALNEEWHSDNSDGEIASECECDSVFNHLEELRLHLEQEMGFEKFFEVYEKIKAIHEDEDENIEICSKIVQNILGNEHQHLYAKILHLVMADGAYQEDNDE", "outline": "as §1"}, "[9]": {"target": "T9, PKCb1 (Homo sapiens, UniProt P05771)", "T9 construct": "purchased Reaction Biology Corp", "T9 sequence (P05771 whole entry)": "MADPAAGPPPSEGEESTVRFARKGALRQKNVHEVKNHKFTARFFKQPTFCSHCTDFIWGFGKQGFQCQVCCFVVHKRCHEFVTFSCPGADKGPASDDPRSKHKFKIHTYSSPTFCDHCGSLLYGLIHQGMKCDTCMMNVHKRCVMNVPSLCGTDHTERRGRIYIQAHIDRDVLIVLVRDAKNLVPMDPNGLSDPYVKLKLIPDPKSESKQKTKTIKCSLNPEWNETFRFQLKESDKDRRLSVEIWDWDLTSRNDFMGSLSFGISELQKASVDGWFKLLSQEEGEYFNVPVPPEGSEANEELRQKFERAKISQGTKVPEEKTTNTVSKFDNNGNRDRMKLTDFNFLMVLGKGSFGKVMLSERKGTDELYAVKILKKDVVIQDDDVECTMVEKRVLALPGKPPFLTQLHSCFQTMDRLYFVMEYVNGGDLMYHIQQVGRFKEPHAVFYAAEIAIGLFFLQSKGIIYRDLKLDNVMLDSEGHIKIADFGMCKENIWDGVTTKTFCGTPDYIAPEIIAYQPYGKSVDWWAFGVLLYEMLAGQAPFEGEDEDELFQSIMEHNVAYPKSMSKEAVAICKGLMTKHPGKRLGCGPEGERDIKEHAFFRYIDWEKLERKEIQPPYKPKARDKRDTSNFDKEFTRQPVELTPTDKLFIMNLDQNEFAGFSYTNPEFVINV", "outline": "as §1"}, "[10]": {"details": "read-out: % Enzyme Activity (relative to DMSO controls) Run 1"}, "[11]": {"details": "read-out: % Enzyme Activity (relative to DMSO controls) Run 2"}},
  "note": "Where two headings read alike, the source gives them in different places.",
  "data": [
    {"smiles": "C=CC(=O)Nc1cccc(Nc2nc(Nc3ccc(OCCOC)c(F)c3)ncc2F)c1", "note": "[Compound 2]", "values": [
      {"measurement": "inhibition at 3 µM", "setting": "[1]", "value": 86.9, "unit": "%"},
      {"measurement": "remaining activity at 3 µM", "setting": "[1]; [10]", "value": 13.2, "unit": "%"},
      {"measurement": "remaining activity at 3 µM", "setting": "[1]; [11]", "value": 12.9, "unit": "%"},
      {"measurement": "inhibition at 3 µM", "setting": "[2]", "value": -9.6, "unit": "%"},
      {"measurement": "remaining activity at 3 µM", "setting": "[2]; [10]", "value": 109, "unit": "%"},
      {"measurement": "remaining activity at 3 µM", "setting": "[2]; [11]", "value": 110, "unit": "%"},
      {"measurement": "inhibition at 3 µM", "setting": "[3]", "value": 13.7, "unit": "%"},
      {"measurement": "remaining activity at 3 µM", "setting": "[3]; [10]", "value": 85.8, "unit": "%"},
      {"measurement": "remaining activity at 3 µM", "setting": "[3]; [11]", "value": 86.9, "unit": "%"},
      {"measurement": "inhibition at 3 µM", "setting": "[4]", "value": 15.8, "unit": "%"},
      {"measurement": "remaining activity at 3 µM", "setting": "[4]; [10]", "value": 84.2, "unit": "%"},
      {"measurement": "remaining activity at 3 µM", "setting": "[4]; [11]", "value": 84.1, "unit": "%"},
      {"measurement": "inhibition at 3 µM", "setting": "[5]", "value": 18.5, "unit": "%"},
      {"measurement": "remaining activity at 3 µM", "setting": "[5]; [10]", "value": 81.1, "unit": "%"},
      {"measurement": "remaining activity at 3 µM", "setting": "[5]; [11]", "value": 81.8, "unit": "%"},
      {"measurement": "inhibition at 3 µM", "setting": "[6]", "value": -11.6, "unit": "%"},
      {"measurement": "remaining activity at 3 µM", "setting": "[6]; [10]", "value": 110, "unit": "%"},
      {"measurement": "remaining activity at 3 µM", "setting": "[6]; [11]", "value": 113, "unit": "%"},
      {"measurement": "inhibition at 3 µM", "setting": "[7]", "value": -8.07, "unit": "%"},
      {"measurement": "remaining activity at 3 µM", "setting": "[7]; [10]", "value": 109, "unit": "%"},
      {"measurement": "remaining activity at 3 µM", "setting": "[7]; [11]", "value": 107, "unit": "%"},
      {"measurement": "inhibition at 3 µM", "setting": "[8]", "value": 46.6, "unit": "%"},
      {"measurement": "remaining activity at 3 µM", "setting": "[8]; [10]", "value": 52.7, "unit": "%"},
      {"measurement": "remaining activity at 3 µM", "setting": "[8]; [11]", "value": 54, "unit": "%"},
      {"measurement": "inhibition at 3 µM", "setting": "[9]", "value": 27.6, "unit": "%"},
      {"measurement": "remaining activity at 3 µM", "setting": "[9]; [10]", "value": 72.7, "unit": "%"},
      {"measurement": "remaining activity at 3 µM", "setting": "[9]; [11]", "value": 72.1, "unit": "%"}
    ]}
  ]
}
